According to US12459922B2 (Gilead Sciences, Inc., priority 2022, dated 2025):
pEC50, pIC50: −log10 of the molar value.

Tests used:
[1] = test system: endogenous cellular STAT1 (phosphorylated at Tyr701) in NCI-H1373 cells; assay: Phospho-STAT1 (Tyr701) LANCE Ultra TR-FRET Detection Assay; assay type: cell-based; conditions: Homo sapiens, NCI-H1373, 48 h, phospho-STAT1 (Tyr701) induction, read-out: NH1373 pSTAT1 EC50
PARP7 = molecular target: T1, PARP7 (Homo sapiens, UniProt Q7Z3E1); assay: Probe Displacement Assay for PARP7 (MSD electrochemiluminescent, biotinylated probe RBNO11147); conditions: displacement of biotinylated probe RBNO11147 from PARP7 NAD+-binding site; read-out: MSD ProbeDisp PARP7 IC50
T1 sequence (Q7Z3E1 1-657): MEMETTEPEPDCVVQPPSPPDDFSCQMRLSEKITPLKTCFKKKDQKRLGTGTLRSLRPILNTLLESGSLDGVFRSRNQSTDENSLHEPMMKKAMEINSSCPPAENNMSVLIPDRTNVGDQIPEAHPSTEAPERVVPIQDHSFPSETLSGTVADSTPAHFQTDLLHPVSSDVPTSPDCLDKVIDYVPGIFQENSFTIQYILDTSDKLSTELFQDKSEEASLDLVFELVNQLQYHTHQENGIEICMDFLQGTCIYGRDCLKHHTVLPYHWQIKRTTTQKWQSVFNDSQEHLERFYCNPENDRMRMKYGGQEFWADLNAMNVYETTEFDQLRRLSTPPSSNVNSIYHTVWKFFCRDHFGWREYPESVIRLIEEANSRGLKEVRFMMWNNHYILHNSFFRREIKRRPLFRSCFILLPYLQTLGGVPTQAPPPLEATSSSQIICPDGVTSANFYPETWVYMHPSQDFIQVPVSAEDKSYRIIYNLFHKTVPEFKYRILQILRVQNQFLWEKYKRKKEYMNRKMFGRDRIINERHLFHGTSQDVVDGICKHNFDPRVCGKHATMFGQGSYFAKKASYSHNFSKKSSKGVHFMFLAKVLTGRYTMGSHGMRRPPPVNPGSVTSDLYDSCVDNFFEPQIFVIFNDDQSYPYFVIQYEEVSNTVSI

SMILES | pEC50 [1] | pIC50 (PARP7)
C[C@@H](CCCn1ccc2cc(-c3ccc(CC(F)(F)F)cn3)cc(F)c2c1=O)Nc1cn[nH]c(=O)c1C(F)(F)F [Example 41, 8-fluoro-2-[(4S)-4-[[6-oxo-5-(trifluoromethyl)-1H-pyridazin-4-yl]amino]pentyl]-6-[5-(2,2,2-trifluoroethyl)-2-pyridyl]isoquinolin-1-one] | 6.84 | 8.43
C[C@@H](CCCn1ccc2cc(-c3ccc(C(F)(F)F)cn3)cc(F)c2c1=O)Nc1cn[nH]c(=O)c1C(F)(F)F [Example 11, 8-fluoro-2-[(4S)-4-[[6-oxo-5-(trifluoromethyl)-1H-pyridazin-4-yl]amino]pentyl]-6-[5-(trifluoromethyl)-2-pyridyl]isoquinolin-1-one] | 7.49 | 9.70
C[C@@H](CCCn1ccc2cc(-c3ncc(C(F)(F)F)cn3)c(Cl)cc2c1=O)Nc1cn[nH]c(=O)c1C(F)(F)F [Example 44, 7-chloro-2-[(4S)-4-[[6-oxo-5-(trifluoromethyl)-1H-pyridazin-4-yl]amino]pentyl]-6-[5-(trifluoromethyl)pyrimidin-2-yl]isoquinolin-1-one] | 5.00 | 9.17
C[C@@H](CCCn1ccc2cc(-c3ccc(C(F)F)cn3)c(F)cc2c1=O)Nc1cn[nH]c(=O)c1C(F)(F)F [Example 33, 6-[5-(difluoromethyl)-2-pyridyl]-7-fluoro-2-[(4S)-4-[[6-oxo-5-(trifluoromethyl)-1H-pyridazin-4-yl]amino]pentyl]isoquinolin-1-one] | 6.77 | 9.30
C[C@@H](CCCn1ccc2cc(-c3ncc(C(F)(F)F)cn3)ccc2c1=O)Nc1cn[nH]c(=O)c1C(F)(F)F [Example 5, 2-[(4S)-4-[[6-oxo-5-(trifluoromethyl)-1H-pyridazin-4-yl]amino]pentyl]-6-[5-(trifluoromethyl)pyrimidin-2-yl]isoquinolin-1-one] | 6.85 | 9.52
C[C@@H](CCCn1ccc2cc(-c3ccc(F)cn3)c(F)c(F)c2c1=O)Nc1cn[nH]c(=O)c1C(F)(F)F [Example 52, (S)-7,8-difluoro-6-(5-fluoropyridin-2-yl)-2-(4-((6-oxo-5-(trifluoromethyl)-1,6-dihydropyridazin-4-yl)amino)pentyl)isoquinolin-1(2H)-one] | 6.78 | 9.12
C[C@@H](CCCn1ccc2cc(-c3cccc4c3OCC4)c(F)cc2c1=O)Nc1cn[nH]c(=O)c1C(F)(F)F [Example 26, (S)-6-(2,3-dihydrobenzofuran-7-yl)-7-fluoro-2-(4-((6-oxo-5-(trifluoromethyl)-1,6-dihydropyridazin-4-yl)amino)pentyl)isoquinolin-1(2H)-one] | 5.00 | 9.40
C[C@@H](CCCn1ccc2cc(-c3ncc(C(F)(F)F)cn3)c(F)c(F)c2c1=O)Nc1cn[nH]c(=O)c1C(F)(F)F [Example 20] | 7.83 | 9.52
C[C@@H](CCCn1ccc2cc(-c3cc(N)c(C(F)(F)F)cn3)c(F)cc2c1=O)Nc1cn[nH]c(=O)c1C(F)(F)F [Example 49, 6-[4-amino-5-(trifluoromethyl)-2-pyridyl]-7-fluoro-2-[(4S)-4-[[6-oxo-5-(trifluoromethyl)-1H-pyridazin-4-yl]amino]pentyl]isoquinolin-1-one] | 7.27 | 9.38
C[C@@H](CCCn1ccc2cc(-c3ccc4c(c3)OCCO4)c(F)cc2c1=O)Nc1cn[nH]c(=O)c1C(F)(F)F [Example 28, (S)-6-(2,3-dihydrobenzo[b][1,4]dioxin-6-yl)-7-fluoro-2-(4-((6-oxo-5-(trifluoromethyl)-1,6-dihydropyridazin-4-yl)amino)pentyl)isoquinolin-1(2H)-one] | 5.66 | < 7.48
CC(=O)c1c(N[C@@H](C)CCCn2ccc3cc(-c4ncc(C(F)(F)F)cn4)c(F)cc3c2=O)cn[nH]c1=O [Example 16, (S)-2-(4-((5-acetyl-6-oxo-1,6-dihydropyridazin-4-yl)amino)pentyl)-7-fluoro-6-(5-(trifluoromethyl)pyrimidin-2-yl)isoquinolin-1(2H)-one] | 7.60 | 9.70
C[C@@H](CCCn1ccc2c(F)c(-c3ccc(C(F)(F)F)cn3)ccc2c1=O)Nc1cn[nH]c(=O)c1C(F)(F)F [Example 10, 5-fluoro-2-[(4S)-4-[[6-oxo-5-(trifluoromethyl)-1H-pyridazin-4-yl]amino]pentyl]-6-[5-(trifluoromethyl)-2-pyridyl]isoquinolin-1-one] | 6.54 | 9.15
C[C@@H](CCCn1ccc2cc(-c3ccc(C(F)(F)F)cn3)c(F)c(F)c2c1=O)Nc1cn[nH]c(=O)c1C(F)(F)F [Example 55, (S)-7,8-difluoro-2-(4-((6-oxo-5-(trifluoromethyl)-1,6-dihydropyridazin-4-yl)amino)pentyl)-6-(5-(trifluoromethyl)pyridin-2-yl)isoquinolin-1(2H)-one] | 7.41 | 9.16

Further lines, results first:

pEC50 [1] | pIC50 (PARP7) | SMILES
8.46 | 9.56 | CC[C@@H](CCCn1ccc2cc(-c3ncc(Cl)c(N)n3)c(F)cc2c1=O)Nc1cn[nH]c(=O)c1C(F)(F)F [Example 303, (S)-6-(4-amino-5-chloropyrimidin-2-yl)-7-fluoro-2-(4-((6-oxo-5-(trifluoromethyl)-1,6-dihydropyridazin-4-yl)amino)hexyl)isoquinolin-1(2H)-one]
7.45 | 9.41 | C[C@@H](CCCn1ccc2cc(-c3nc4ccccc4s3)c(F)cc2c1=O)Nc1cn[nH]c(=O)c1C(F)(F)F [Example 308, (S)-6-(benzo[d]thiazol-2-yl)-7-fluoro-2-(4-((6-oxo-5-(trifluoromethyl)-1,6-dihydropyridazin-4-yl)amino)pentyl)isoquinolin-1(2H)-one]
7.17 | 9.24 | C[C@@H](CCCn1ccc2cc(-c3ncc(OC(F)F)cn3)c(F)c(F)c2c1=O)Nc1cn[nH]c(=O)c1C(F)(F)F [Example 56, (S)-6-(5-(difluoromethoxy)pyrimidin-2-yl)-7,8-difluoro-2-(4-((6-oxo-5-(trifluoromethyl)-1,6-dihydropyridazin-4-yl)amino)pentyl)isoquinolin-1(2H)-one]
7.67 | 9.39 | C[C@@H](CCCn1ccc2cc(-c3ncc(C(F)F)cn3)c(F)cc2c1=O)Nc1cn[nH]c(=O)c1C(F)(F)F [Example 76, 6-[5-(difluoromethyl)pyrimidin-2-yl]-7-fluoro-2-[(4S)-4-[[6-oxo-5-(trifluoromethyl)-1H-pyridazin-4-yl]amino]pentyl]isoquinolin-1-one]
8.61 | 9.59 | Nc1nc(-c2cc3ccn(CCC[C@H](COC(F)F)Nc4cn[nH]c(=O)c4C(F)(F)F)c(=O)c3cc2F)ncc1Cl [Example 378, (R)-6-(4-amino-5-chloropyrimidin-2-yl)-2-(5-(difluoromethoxy)-4-((6-oxo-5-(trifluoromethyl)-1,6-dihydropyridazin-4-yl)amino)pentyl)-7-fluoroisoquinolin-1(2H)-one]
8.22 | 9.73 | C[C@@H](CCCn1cnc2cc(-c3ncc(C(F)(F)F)c(N4C[C@@H](O)[C@@H]4C)n3)c(F)cc2c1=O)Nc1cn[nH]c(=O)c1C(F)(F)F [Example 314, 6-fluoro-7-(4-((2S,3R)-3-hydroxy-2-methylazetidin-1-yl)-5-(trifluoromethyl)pyrimidin-2-yl)-3-((S)-4-((6-oxo-5-(trifluoromethyl)-1,6-dihydropyridazin-4-yl)amino)pentyl)quinazolin-4(3H)-one]
